According to PMC9888480, “Carboranyl-1,8-naphthalimide intercalators induce lysosomal membrane permeabilization and ferroptosis in cancer cell lines” (Journal of Enzyme Inhibition and Medicinal Chemistry, 2023):

Key:
Format in all cases: cell-based, human
HepG2 cells [1] = assay: Apoptosis/necrosis assay by flow cytometry (YO-PRO-1/PI); settings: HepG2, 24 h, YO-PRO1/PI; for early apoptotic cells: half and total IC50 concentrations tested
Experimental: Apoptosis/necrosis assay was carried out by double staining of cells with YO-PRO-1 (Thermo Fisher Scientific) and propidium iodide (PI, Sigma-Aldrich) fluorescent dyes. Briefly, HepG2 cells (2 × 10^5) were seeded onto 6-well plates. […] Subsequently, the cells were detached with trypsin (Thermo Fisher Scientific), washed twice with DPBS (1 ml) (Thermo Fisher Scientific), and stained with YO-PRO-1 (0.5 µM) and PI (10 µg/ml) according to the manufacturer’s protocol for 30 min at 37 °C in the dark. Immediately after staining, the cells were analysed with 488 nm excitation using a FACSCalibur flow cytometer (Becton Dickinson), and data were analysed using the FlowJo software (Becton Dickinson).

MRC-5 = assay: In vitro cytotoxic activity, MTT assay; settings: concentration required to inhibit cell growth by 50%
Source text: (§1) The in vitro cytotoxic activity of the obtained carborane-1,8-naphthalimide conjugates was investigated by examining their cytotoxic effects using the MTT (3–(4,5-dimethylthiazol-2-yl)-2,5-diphenyltetrazolium bromide) dye assay[38]^,[39] against the human cancer cell line HepG2 established from hepatocellular carcinoma (for compounds 12–19 and 30–37) and against human lung fibroblasts (MRC-5) (for compounds 34–37). The IC50 values—the drug concentration (µM) required to inhibit cell growth by 50%—determined for the synthesised compounds are summarised in Table 2.
(§2) The cytotoxic properties of the synthesised compounds were evaluated using the human hepatocellular carcinoma cell line (HepG2) and human lung fibroblasts (MRC-5). The HepG2 and MRC-5 cell lines were purchased from American Type Culture Collection (ATCC, Manassas, VA, USA). The HepG2 cells were propagated in Eagle’s minimal essential medium (EMEM, ATCC, Manassas, VA, USA), supplemented with 10% inactivated foetal bovine serum (FBS, Life Technologies, Warsaw, Poland) and 100 units/ml penicillin G with […] streptomycin (Life Technologies, Warsaw, Poland). The cells were incubated at 37 °C in a humidified atmosphere containing 5% CO2. Upon reaching 80–90% confluency, the cells were harvested with 0.25% trypsin in 1 mM EDTA (Life Technologies, Warsaw, Poland) and transferred to 96-well microplates at 2 × 10^4 cells/well. After overnight incubation of cells at 37 °C in a humidified atmosphere containing 5% CO2, the culture medium was removed and replaced with a freshly prepared solution of compounds in the culture medium or medium itself as the control group. The stock solutions of each compound were prepared in DMSO at a concentration of 100 mM and were diluted with the growth medium supplemented with 10% FBS to ensure drug dissolution to obtain concentrations ranging from 0.1 to 1000 µM. Cytotoxicity was evaluated using the MTT assay. After incubation with the compounds, the cells were treated with MTT dye solution (5 mg/ml) for 2 h and lysed with a solvent solution containing DMF (45 ml), sodium dodecylsulfate (13.5 g), and distilled water (55 ml). After overnight incubation at 37 °C, optical density at 550 nm, with a reference wavelength of 670 nm, was measured in an ELISA reader (VarioskanLux, Thermo Scientific, Waltham, MA, USA). All determinations were carried out in triplicate. Results were calculated as the percentage of control group viability. The IC50 values of the compounds were calculated in an Excel add-in ED50V10.

HepG2 = assay: In vitro cytotoxic activity, MTT assay; settings: concentration required to inhibit cell growth by 50%
Source text: as §1, §2

HepG2 cells [2] = assay: Oxidative stress (ROS) measurement by flow cytometry (H2DCFDA); settings: HepG2, 24 h, total IC50 concentration
Experimental: The HepG2 cells were seeded (2 × 10^5 cells/well) onto 12-well plates and cultured in supplemented EMEM at 37 °C under 5% CO2 saturation until 70–80% confluency was reached. […] The intracellular ROS level was analysed by staining with H2DCFDA (ex/em: ∼492–495/517–527 nm) in accordance with the manufacturer’s protocol (Thermo Fisher Scientific, Waltham, MA, USA), wherein ROS trigger the fluorescence. The cells were separated by trypsin (Corning®) and washed twice with DPBS (1 ml, Capricorn). The pelleted cells were suspended in 0.5 ml of DPBS containing H2DCFDA at the final concentration of 0.5 µM. In order to eliminate dead cells from analysis, propidium iodide (10 µg/ml) was also added to the staining mix. The cells were then incubated at 37 °C for 30 min in the dark and then analysed with excitation at 488 nm using a FACSCalibur flow cytometer (Becton Dickinson, Franklin Lakes, NJ, USA), and the data were analysed using the FlowJo software (Becton Dickinson).

HepG2 cells [3] = assay: Cell cycle analysis by flow cytometry (PI); settings: HepG2, 24 h, total IC50 concentration; 5% in untreated cells
Experimental: The DNA content was determined using flow cytometry with PI (Sigma-Aldrich, Steinheim, Germany) staining. After incubation, the cells were trypsinized and washed twice with 1 ml of PBS (Capricorn). In the next step, the cells were fixed with an ice-cold 80% ethanol. After incubation for 1 h at 4 °C, the fixed cells were washed twice with PBS and suspended in the staining PI/RNAse A/PBS buffer (PI 50 µg/ml, RNAse A 100 µg/ml) for 30 min at 37 °C in the dark. PI (Sigma) fluorescence was measured using a FACSCalibur (Becton Dickinson), and data were analysed using the FlowJo software (Becton Dickinson).

HepG2 cells [4] = assay: Intracellular Fe2+ level determination (FeRhoNox-1); settings: HepG2, 24 h, total IC50 concentration
Experimental: The HepG2 cells were seeded at the density of 2 × 10^5 cells/well onto 12-well plates and cultured with supplemented EMEM at 37 °C under 5% CO2 saturation until 70–80% confluency was reached. […] Subsequently, the cells were detached with trypsin (Corning®), washed with 1 ml DPBS (Capricorn), and then resuspended in the growth medium with 5 µM FeRhoNox™-1 (Goryo Chemical) for 1 h. […] The cells were analysed after incubation with the dye with excitation at 488 nm using a FACSCalibur flow cytometer (Becton Dickinson), and the data were analysed using the FlowJo software (Becton Dickinson). To create a strong, single, positive red fluorescence signal, 3 mM N-acetylcysteine (2 h incubation; Sigma-Aldrich) was used.

Substance | early apoptotic cells (HepG2 cells [1]) | IC50 (MRC-5) | IC50 (HepG2) | ROS generation (green fluorescence intensity) (HepG2 cells [2]) | accumulation of cells in G2M phase (HepG2 cells [3]) | intracellular Fe2+ level (red fluorescence intensity) (HepG2 cells [4]) | necrosis (PI positive cells) (HepG2 cells [1])
4-[(6-[(1,7-Dicarba-closo-dodecaborane-1-yl)ethylamino]hexyl)amino]-3-nitro-N-[2-(N-pyrrolidinyl)ethyl]-1,8-naphthalimide [Compound 37] | 12.56% | 2260 ± 50 nM | 4230 ± 820 nM | increased approximately twofold | 15% | – | –
4-[(6-[(1,2-Dicarba-closo-dodecaborane-1-yl)ethylamino]hexyl)amino]-N-[2-(dimethylamino)ethyl]-3-nitro-1,8-naphthalimide [Compound 34] | 9.12% | 2130 ± 230 nM | 4780 ± 790 nM | increased approximately twofold | – | – | –
4-[(6-[(1,2-Dicarba-closo-dodecaborane-1-yl)ethylamino]hexyl)amino]-3-nitro-N-[2-(N-pyrrolidinyl)ethyl]-1,8-naphthalimide [Compound 36] | 12.55% | 2330 ± 20 nM | 3630 ± 300 nM | weakest ROS inductor | – | lowest | –
4-[(6-[(1,7-Dicarba-closo-dodecaborane-1-yl)ethylamino]hexyl)amino]-N-[2-(dimethylamino)ethyl]-3-nitro-1,8-naphthalimide [Compound 35] | 6.7% | 2140 ± 360 nM | 4320 ± 710 nM | moderate effect | 15% | highest ferrous level | 55.75%
